Data from US9802929B2, “Benzo five-membered nitrogen heterocyclic piperidine or piperazine derivatives and preparation methods and pharmaceutical compositions thereof” (Shenyang Haiwang Biotechnology Co., Ltd., priority 2012, dated 2017).

Key:
[1] = system: In-Vitro Vascular Smooth Muscle of Rabbits; assay: Relaxant effect on in vitro rabbit vascular smooth muscle contraction induced by hyperkalemia solution; conditions: for EC50: Oryctolagus cuniculus, relaxation of rabbit aortic rings contracted by hyperkalemia solution (K+ 60 mmol/L); for relaxant effect against hyperkalemia solution contraction (in words): rabbit vascular smooth muscle
[2] = system: In Vitro Vascular Smooth Muscle of Rabbits; assay: Relaxant effect on in vitro rabbit vascular smooth muscle contraction induced by adrenaline (AD); conditions: for EC50: Oryctolagus cuniculus, relaxation of rabbit aortic rings contracted by AD (10^−5 mol/L); for relaxant effect against AD contraction (in words): rabbit vascular smooth muscle, AD 10^−5 mol/L
Description: Krebs-Henseleit (K—H) physiological solution: NaCl 6.92 (concentration units), KCl 0.35, MgSO4 0.29, KH2PO4 0.16, CaCl2 0.28, NaHCO3 2.1, glucose 2.0 (g/L), pH 7.2.
Preparation of compound II-1 to II-87 solutions: Weigh a certain quality compound samples and dilute to concentrations (10^−10˜10^−3 mol/L) with distilled water, standby.
Cut the chest open quickly after stunning, strip out the descending aorta, then after removing the surrounding connective tissue and adipose tissue (if performed serotonin receptor antagonist experiments, endothelial cells should be removed using a smooth stainless steel bars), cut the vessels into 3-5 mm vascular ring, then pass the steel hook through the blood vessel ring, with one end is fixed to the vent hook and the other end connected to the tension transducer, then place the specimens into bath tube containing 20 mL of nutrient solution, and record tension change by tension transducer. Maintain tube temperature at 37±0.5° C., and pass bubbles (95% O2+5% CO2) into the solution as a speed of 1-2 bubbles/minute. Place an initial load of 1.5 g on the rings, and change nutrient every 20 minutes, then balance for 2 hours and start test after baseline readings are stabilized.
After tension readings are stabilized, record a certain length of tension curve, and add spasmogens agent AD (10^−5 mol/L) to induce contraction; if a maximum contract is achieved, wash the specimens thoroughly, and change K—H solution every 20 minutes, and then balance for 60 minutes; after baseline readings are stabilized, induce contract with spasmogens agent again. When the maximum contract in the later induction is consistent with the former induction, add compound II-1 to II-34 solutions (1×10^−10 to 1×10^−3 mol/L), II-35 to II-87 solutions (1×10^−8-1×10^−3 mol/L), and record the curves. Draw a dose-response curve using maximum relaxation response as 100%, relaxation percentage as ordinate and negative logarithms of the each concentration as abscissa.

Row | EC50 [1] [µM] | Structure (SMILES) | further results
1 | 20.4 | Clc1cccc(C2CCN(CCCCn3cnc4ccccc43)CC2)c1 [Compound II-1, N-(4-(1H-benzimidazol-1-yl)butyl)-4-(3-chlorophenyl)piperidine] | 
2 | 0.977 | FC(F)(F)c1cccc(C2CCN(CCCCn3cnc4ccccc43)CC2)c1 [Compound II-3, N-(4-(1H-benzimidazol-1-yl)butyl)-4-(3-trifluoromethylphenyl)piperidine] | 
3 | 41.7 | COc1ccccc1C1CCN(CCCCn2cnc3ccccc32)CC1 [Compound II-6, N-(4-(1H-benzimidazol-1-yl)butyl)-4-(2-methoxyphenyl)piperidine] | 
4 | 36.3 | Fc1cccc(C2CCN(CCCCn3cnc4ccccc43)CC2)c1 [II-5, N-(4-(1H-benzimidazol-1-yl)butyl)-4-(3-fluorophenyl)piperidine] | 
5 | 6.76 | FC(F)(F)c1cccc(C2CCN(CCCOn3cnc4ccccc43)CC2)c1 [II-11] | 
6 | 29.5 | c1coc(C2CCN(CCCCn3cnc4ccccc43)CC2)c1 [II-29, N-(4-(1H-benzimidazol-1-yl)butyl)-4-(2-furyl)piperidine] | 
7 | 55 | c1ccc2c(c1)ncn2CCCCN1CCC(c2ccncc2)CC1 [II-30, N-(4-(1H-benzimidazol-1-yl)butyl)-4-(4-pyridyl)piperidine] | 
8 | 47.9 | c1cnc(C2CCN(CCCCn3cnc4ccccc43)CC2)nc1 [II-31, N-(4-(1H-benzimidazol-1-yl)butyl)-4-(2-pyrimidinyl)piperidine] | 
9 | 91.2 | c1ccc2c(C3CCN(CCCCn4nnc5ccccc54)CC3)cccc2c1 [II-33, N-(4-(1H-benzotriazole-1-yl)butyl)-4-(1-naphthyl)piperidine] | 
10 | 74.1 | c1ccc2nc(C3CCN(CCCCn4nnc5ccccc54)CC3)cnc2c1 [II-34, N-(4-(1H-benzotriazole-1-yl)butyl)-4-(2-quinoxalinyl)piperidine] | 
11 | 117 | c1ccc2c(c1)ncn2CCCCN1CCN(c2n[nH]c3ccccc23)CC1 [II-54, 1-(4-(4-(3-benzopyrazolyl)piperazin-1-yl)butyl)-1H-benzimidazole] | EC50 [2]: 58.9 µM

The remaining lines, values behind:

Row | Structure (SMILES) | EC50 [1] [µM] | further results
12 | Clc1cccc(N2CCN(CCCCn3cnc4ccccc43)CC2)c1Cl [Compound II-37, 1-(4-(4-(2,3-dichlorophenyl)piperazin-1-yl)butyl)-1H-benzimidazole] | 3.24 | relaxant effect against hyperkalemia solution contraction (in words) [1]: significant relaxant effect; EC50 [2]: 0.977 µM; relaxant effect against AD contraction (in words) [2]: most significant relaxation effects
13 | Clc1cccc(N2CCN(CCCCn3nnc4ccccc43)CC2)c1 [Compound II-63, 1-(4-(4-(3-chlorophenyl)piperazin-1-yl)butyl)-1H-benzotriazole] | 2.29 | relaxant effect against hyperkalemia solution contraction (in words) [1]: significant relaxant effect; EC50 [2]: 0.977 µM; relaxant effect against AD contraction (in words) [2]: most significant relaxation effects
14 | FC(F)(F)c1cccc(C2CCN(CCCCn3nnc4ccccc43)CC2)c1 [II-4, N-(4-(1H-benzotriazole-1-yl)butyl)-4-(3-trifluoromethylphenyl)piperidine] | 0.759 | 
15 | Fc1ccc2nnn(CCCCN3CCC(c4cccc(C(F)(F)F)c4)CC3)c2c1 [II-7, N-(4-(6-fluoro-1H-benzotriazole-1-yl)butyl)-4-(3-trifluoromethylphenyl)piperidine] | 9.33 | 
16 | COc1ccc2nnn(CCCCN3CCC(c4cccc(C(F)(F)F)c4)CC3)c2c1 [II-8, N-(4-(6-methoxy-1H-benzotriazole-1-yl)butyl)-4-(3-trifluoromethylphenyl)piperidine] | 27.5 | 
17 | N#Cc1ccc2nnn(CCCCN3CCC(c4cccc(C(F)(F)F)c4)CC3)c2c1 [II-9, N-(4-(6-cyano-1H-benzotriazole-1-yl)butyl)-4-(3-trifluoromethylphenyl)piperidine] | 58.9 | 
18 | FC(F)(F)c1cccc(C2CCN(CCCOn3nnc4ccccc43)CC2)c1 [II-10, N-(4-(1H-benzotriazole-1-yl)propoxy)-4-(3-trifluoromethylphenyl)piperidine] | 6.03 | 
19 | Cc1ccc2c(C3CCN(CCCn4nnc5ccccc54)CC3)noc2c1 [II-12, N-(3-(1H-benzotriazole-1-yl)propyl)-4-(3-(6-methyl-benzisoxazole))piperidine] | 8.13 | 
20 | COc1ccc2c(C3CCN(CCCn4nnc5ccccc54)CC3)noc2c1 [II-13, N-(3-(1H-benzotriazole-1-yl)propyl)-4-(3-(6-methoxy-benzene and isoxazole))piperidine] | 7.59 | 
21 | Fc1ccc2c(C3CCN(CCCn4nnc5ccc(F)cc54)CC3)noc2c1 [II-14, N-(3-(6-fluoro-1H-benzotriazole-1-yl)propyl)-4-(3-(6-fluorobenzoisoxazole))piperidine] | 1.91 | 
22 | Fc1ccc2c(C3CCN(CCCn4nnc5ccc(Cl)cc54)CC3)noc2c1 [II-15, N-(3-(6-chloro-1H-benzotriazole-1-yl)propyl)-4-(3-(6-fluorobenzoisoxazole))piperidine] | 7.59 | 
23 | Cc1ccc2nnn(CCCN3CCC(c4noc5cc(F)ccc45)CC3)c2c1 [II-16, N-(3-(6-methyl-1H-benzotriazole-1-yl)propyl)-4-(3-(6-fluorobenzoisoxazole))piperidine] | 5.25 | 
24 | O=Cc1ccc2nnn(CCCN3CCC(c4noc5cc(F)ccc45)CC3)c2c1 [II-18, N-(3-(6-formyl-1H-benzotriazole-1-yl)propyl)-4-(3-(6-fluorobenzoisoxazole))piperidine] | 4.79 | 
25 | COc1ccc2nnn(CCCN3CCC(c4noc5ccccc45)CC3)c2c1 [II-19, N-(3-(6-methoxybenzotriazolyl)propyl)-4-(3-benzoisoxazole)piperidine] | 7.76 | 
26 | COc1ccc2c(C3CCN(CCCCn4nnc5ccc(C#N)cc54)CC3)noc2c1 [II-23, N-(4-(6-cyano-benzotriazole-yl)butyl)-4-(3-(6-methoxy-benzene and isoxazole)) piperidine] | 58.9 | 
27 | c1ccc2c(c1)nnn2CCCCN1CCC(C2CCCCC2)CC1 [II-32, N-(4-(1H-benzotriazole-1-yl)butyl)-4-cyclohexyl piperidine] | 72.4 | 
28 | Clc1cccc(N2CCN(CCCn3nnc4ccccc43)CC2)c1Cl [II-72, 1-(3-(4-(2,3-dichlorophenyl)piperazin-1-yl)propyl)-1H-benzotriazole] | 4.68 | EC50 [2]: 1.91 µM
29 | Cc1cccc(N2CCN(CCCn3nnc4ccccc43)CC2)c1 [II-73, 1-(3-(4-(3-methylphenyl)piperazin-1-yl)propyl)-1H-benzotriazole] | 6.03 | EC50 [2]: 3.39 µM
30 | N#Cc1ccc2nnn(CCCCN3CCN(c4cccc(C(F)(F)F)c4)CC3)c2c1 [II-84, 6-cyano-1-(4-(4-(3-trifluoromethylphenyl)piperazin-1-yl)butyl)-1H-benzotriazole] | 49 | 
31 | COC(=O)c1ccc2nnn(CCCCN3CCN(c4cccc(C(F)(F)F)c4)CC3)c2c1 [II-85, 6-methoxycarbonyl-1-(4-(4-(3-trifluoromethylphenyl)piperazin-1-yl)butyl)-1H-benzotriazole] | 77.6 | 
32 | Fc1ccc2c(N3CCN(CCCOn4nnc5ccccc54)CC3)noc2c1 [II-86] | 26.3 | EC50 [2]: 13.2 µM
